In ChEMBL document CHEMBL4732195, “Promising hit compounds against resistant trichomoniasis: Synthesis and antiparasitic activity of 3-(ω-aminoalkoxy)-1-benzyl-5-nitroindazoles” (Bioorg Med Chem Lett, 2021):
pIC50: −log10 of the molar value.

Experiments:
Trichomonas vaginalis [1] = test: Antimicrobial activity against Trichomonas vaginalis JH31A#4 trophozoites assessed as reduction in parasitic growth incubated for 24 hrs by resazurin dye based fluorescence assay; format: functional, organism-based; conditions: JH31A#4, 24 h
[2] = Selectivity index, ratio of CC50 for African green monkey Vero cells to IC50 for Trichomonas vaginalis JH31A#4 trophozoites; format: toxicity; conditions: read-out: Ratio CC50/IC50
Trichomonas vaginalis [3] = test: Antimicrobial activity against Trichomonas vaginalis IR78 trophozoites assessed as reduction in parasitic growth incubated for 24 hrs by resazurin dye based fluorescence assay; format: functional, organism-based; conditions: IR78, 24 h
[4] = Selectivity index, ratio of CC50 for African green monkey Vero cells to IC50 for Trichomonas vaginalis IR78 trophozoites; format: toxicity; conditions: read-out: Ratio CC50/IC50
[5] = Cytotoxicity against African green monkey Vero cells; format: cell-based; conditions: chlorocebus sabaeus

CN(C)CCOc1nn(Cc2ccccc2)c2ccc([N+](=O)[O-])cc12
pIC50 (Trichomonas vaginalis [1]): 3.68

O=[N+]([O-])c1ccc2c(c1)c(OCCCCCBr)nn2Cc1ccccc1
pIC50 (Trichomonas vaginalis [1]): < 3.52

CN(C)CCCCCOc1nn(Cc2ccccc2)c2ccc([N+](=O)[O-])cc12
selectivity ratio [2]: 8 | pIC50 (Trichomonas vaginalis [3]): 4.25 | pIC50 (Trichomonas vaginalis [1]): 5.19 | selectivity ratio [4]: 0.94 | CC50 [5]: 52.3 µM

CNCCOc1nn(Cc2ccccc2)c2ccc([N+](=O)[O-])cc12
selectivity ratio [2]: 10.5 | pIC50 (Trichomonas vaginalis [3]): 4.13 | pIC50 (Trichomonas vaginalis [1]): 4.79 | selectivity ratio [4]: 2.3 | CC50 [5]: 171 µM

O=C1c2ccccc2C(=O)N1CCCOc1nn(Cc2ccccc2)c2ccc([N+](=O)[O-])cc12
pIC50 (Trichomonas vaginalis [1]): 4.15

O=C1c2ccccc2C(=O)N1CCOc1nn(Cc2ccccc2)c2ccc([N+](=O)[O-])cc12
pIC50 (Trichomonas vaginalis [1]): 3.55

NCCCCCOc1nn(Cc2ccccc2)c2ccc([N+](=O)[O-])cc12
selectivity ratio [2]: 13.7 | pIC50 (Trichomonas vaginalis [3]): 4.23 | pIC50 (Trichomonas vaginalis [1]): 5.38 | selectivity ratio [4]: 1 | CC50 [5]: 57.7 µM

O=[N+]([O-])c1ccc2c(c1)c(OCCCCCN1CCCCC1)nn2Cc1ccccc1
pIC50 (Trichomonas vaginalis [1]): 4.16

O=[N+]([O-])c1ccc2c(c1)c(OCCN1CCCCC1)nn2Cc1ccccc1
pIC50 (Trichomonas vaginalis [1]): 3.58

CNCCCCCOc1nn(Cc2ccccc2)c2ccc([N+](=O)[O-])cc12
selectivity ratio [2]: 9.6 | pIC50 (Trichomonas vaginalis [3]): 6.30 | pIC50 (Trichomonas vaginalis [1]): 5.60 | selectivity ratio [4]: 48 | CC50 [5]: 24 µM

O=[N+]([O-])c1ccc2c(c1)c(OCCCN1CCCCC1)nn2Cc1ccccc1
pIC50 (Trichomonas vaginalis [1]): 3.98

NCCCOc1nn(Cc2ccccc2)c2ccc([N+](=O)[O-])cc12
selectivity ratio [2]: 2.4 | pIC50 (Trichomonas vaginalis [3]): 5.89 | pIC50 (Trichomonas vaginalis [1]): 4.72 | selectivity ratio [4]: 35.6 | CC50 [5]: 46.3 µM

O=[N+]([O-])c1ccc2c(c1)c(OCCBr)nn2Cc1ccccc1
pIC50 (Trichomonas vaginalis [1]): < 3.52

CN(C)CCCOc1nn(Cc2ccccc2)c2ccc([N+](=O)[O-])cc12
pIC50 (Trichomonas vaginalis [1]): 4.20

NCCOc1nn(Cc2ccccc2)c2ccc([N+](=O)[O-])cc12
selectivity ratio [2]: > 28.6 | pIC50 (Trichomonas vaginalis [3]): 4.84 | pIC50 (Trichomonas vaginalis [1]): 4.98 | selectivity ratio [4]: > 21 | CC50 [5]: > 300 µM

Cc1ncc([N+](=O)[O-])n1CCO [METRONIDAZOLE]
selectivity ratio [2]: > 176 | pIC50 (Trichomonas vaginalis [3]): 5.52 | pIC50 (Trichomonas vaginalis [1]): 5.77 | selectivity ratio [4]: > 100 | CC50 [5]: > 300 µM
